Reference: patent US20200347043A1, “MODULATORS OF THE INTEGRATED STRESS PATHWAY” (Calico Life Sciences LLC, priority 2019, published 2020)

Each compound was assayed on HEK293T cells carrying the ATF4 luciferase reporter (assay: ATF4-Luc assay (in vitro model of VWMD)). Conditions: 1 μg/mL tunicamycin, 7 hours, One Glo luminescence.
Format: cell-based, human
Description: In order to test exemplary compounds of the invention in a cellular context, a stable VWMD cell line was first constructed. The ATF4 reporter was prepared by fusing the human full-length ATF4 5′-UTR (NCBI Accession No. BC022088.2) in front of the firefly luciferase (FLuc) coding sequence lacking the initiator methionine as described in Sidrauski et al (eLife 2013). The construct was used to produce recombinant retroviruses using standard methods and the resulting viral supernatant was used to transduce HEK293T cells, which were then subsequently selected with puromycin to generate a stable cell line.
HEK293T cells carrying the ATF4 luciferase reporter were plated on polylysine coated 384-well plates (Greiner Bio-one) at 30,000 cells per well. Cells were treated the next day with 1 μg/mL tunicamycin and 200 nM of a compound of Formula (I) for 7 hours. Luminescence was measured using One Glo (Promega) as specified by the manufacturer. Cells were maintained in DMEM with L-glutamine supplemented with 10% heat-inactivated FBS (Gibco) and Antibiotic-Antimycotic solution (Gibco).
Table 4 below summarizes the EC50 data obtained using the ATF4-Luc assay for exemplary compounds of the invention.

`O=C(NC12CC(N3CCC(c4ccc(Cl)cc4)C3=O)(C1)C2)[C@H]1C[C@@H](O)c2cc(Cl)ccc2O1` (single isomer, unassigned) [Compound 226, (2R,4R)-6-chloro-N-{3-[(3S*)-3-(4-chlorophenyl)-2-oxopyrrolidin-1-yl]bicyclo[1.1.1]pentan-1-yl}-4-hydroxy-3,4-dihydro-2H-1-benzopyran-2-carboxamide] gave an EC50 of 500 to 2000 nM.

Same assay, conditions: Homo sapiens, HEK-293T, 1 μg/mL tunicamycin, 7 hours, One Glo luminescence

Compared with `O=C(COc1ccc(Cl)c(F)c1)N[C@H]1C[C@H]2O[C@@H]1C[C@@H]2c1nnc([C@H]2C[C@@H](OC(F)(F)F)C2)o1` (racemic) [Compound 168, 2-(4-chloro-3-fluorophenoxy)-N-[rac-(1R,2S,4R,5S)-5-{5-[cis-3-(trifluoromethoxy)cyclobutyl]-1,3,4-oxadiazol-2-yl}-7-oxabicyclo[2.2.1]heptan-2-yl]acetamide], `O=C(N[C@@H]1C[C@@H]2O[C@H]1C[C@H]2c1nnc([C@H]2C[C@@H](OC(F)(F)F)C2)o1)[C@@H]1C[C@@H](O)c2cc(Cl)ccc2O1` (racemic) [Compound 185, (2S,4R)-6-chloro-4-hydroxy-N-[(1RS,2SR,4RS,5SR)-5-{5-[cis-3-(trifluoromethoxy)cyclobutyl]-1,3,4-oxadiazol-2-yl}-7-oxabicyclo[2.2.1]heptan-2-yl]-3,4-dihydro-2H-1-benzopyran-2-carboxamide] is higher in EC50: 250 to 500 nM for the first, greater than 2000 nM for the second.

Compared with `O=C(NC12CCC(c3nnc([C@H]4C[C@@H](OC(F)(F)F)C4)o3)(CC1)CC2)[C@H]1C[C@@H](O)c2cc(Cl)ccc2O1` (racemic) [Compound 171, rac-(2R,4R)-6-chloro-4-hydroxy-N-(4-{5-[cis-3-(trifluoromethoxy)cyclobutyl]-1,3,4-oxadiazol-2-yl}bicyclo[2.2.2]octan-1-yl)-3,4-dihydro-2H-1-benzopyran-2-carboxamide], `O=C(N[C@@H]1CC[C@@H](c2nnc([C@H]3C[C@@H](OC(F)(F)F)C3)o2)OC1)[C@@H]1C[C@H](O)c2cc(Cl)ccc2O1` (relative stereo) [Compound 170, (2S,4S)-6-chloro-4-hydroxy-N-[(3R,6S)-6-{5-[cis-3-(trifluoromethoxy)cyclobutyl]-1,3,4-oxadiazol-2-yl}oxan-3-yl]-3,4-dihydro-2H-1-benzopyran-2-carboxamide] is higher in EC50: less than 10 nM for the first, 250 to 500 nM for the second.

First: O=C(N[C@@H]1C[C@@H]2O[C@H]1C[C@H]2c1nnc([C@H]2C[C@@H](OC(F)(F)F)C2)o1)[C@@H]1C[C@H](O)c2cc(Cl)ccc2O1 (racemic) [Compound 186]
Second: O=C(CO[C@H]1C[C@@H](OC(F)(F)F)C1)N[C@H]1C[C@H]2C[C@@H]1C[C@@H]2NC(=O)[C@H]1C[C@@H](O)c2cc(Cl)ccc2O1 (relative stereo) [Compound 210, (2R,4R)-6-chloro-4-hydroxy-N-[(1R*,2S*,4R*,5S*)-5-(2-{[cis-3-(trifluoromethoxy)cyclobutyl]oxy}acetamido)bicyclo[2.2.1]heptan-2-yl]-3,4-dihydro-2H-1-benzopyran-2-carboxamide]
The EC50 of the first is higher: 10 to 50 nM for the first, less than 10 nM for the second. The second is the more potent here.

`O=C(CO[C@H]1C[C@@H](OC(F)(F)F)C1)N[C@@H]1C[C@@H]2C[C@H]1C[C@H]2NC(=O)[C@H]1C[C@@H](O)c2cc(Cl)ccc2O1` (relative stereo) [Compound 211, (2R,4R)-6-chloro-4-hydroxy-N-[(1S*,2R*,4S*,5R*)-5-(2-{[cis-3-(trifluoromethoxy)cyclobutyl]oxy}acetamido)bicyclo[2.2.1]heptan-2-yl]-3,4-dihydro-2H-1-benzopyran-2-carboxamide] and `O=C(CO[C@H]1C[C@@H](OC(F)(F)F)C1)NC12CC(NC(=O)[C@H]3C[C@H](O)c4cc(Cl)ccc4O3)(C1)C2` (single isomer, unassigned) [Compound 293] cannot be ordered by EC50: less than 10 nM for the first, less than 10 nM for the second.

First: O=C(COc1ccc(Cl)c(F)c1)NC12CC(c3nnc([C@H]4C[C@@H](O)c5cc(Cl)ccc5O4)o3)(C1)C2 (relative stereo) [Compound 252, 2-(4-chloro-3-fluorophenoxy)-N-(3-{5-[(2R*,4R*)-6-chloro-4-hydroxy-3,4-dihydro-2H-1-benzopyran-2-yl]-1,3,4-oxadiazol-2-yl}bicyclo[1.1.1]pentan-1-yl)acetamide]
Second: O=C(COc1ccc(Cl)c(F)c1)NC12CC(c3nnc([C@@H]4C[C@H](O)c5cc(Cl)ccc5O4)o3)(C1)C2 (relative stereo) [Compound 253, 2-(4-chloro-3-fluorophenoxy)-N-(3-{5-[(2S*,4S*)-6-chloro-4-hydroxy-3,4-dihydro-2H-1-benzopyran-2-yl]-1,3,4-oxadiazol-2-yl}bicyclo[1.1.1]pentan-1-yl)acetamide]
The EC50 of the first is lower: less than 10 nM for the first, 10 to 50 nM for the second.

First: O=C(NC12CC(c3nc(-c4ccc(Cl)c(F)c4)no3)(C1)C2)[C@@H]1C[C@H](O)c2cc(Cl)ccc2O1 (single isomer, unassigned) [Compound 199]
Second: O=C(NC12CC(c3nc(-c4ccc(Cl)c(F)c4)no3)(C1)C2)[C@H]1C[C@@H](O)c2cc(Cl)ccc2O1 (single isomer, unassigned) [Compound 202]
The EC50 of the first is higher: 50 to 250 nM for the first, less than 10 nM for the second.

Compared with `O=C(NC12CC(n3cnc(-c4ccc(C(F)(F)F)nc4)c3)(C1)C2)[C@@H]1C[C@H](O)c2cc(Cl)ccc2O1` (single isomer, unassigned) [Compound 200], `O=C(NC12CC(N3CCC(c4ccc(Cl)cc4)C3=O)(C1)C2)[C@H]1C[C@@H](O)c2cc(Cl)ccc2O1` (single isomer, unassigned) [Compound 225, (2R,4R)-6-chloro-N-{3-[(3R*)-3-(4-chlorophenyl)-2-oxopyrrolidin-1-yl]bicyclo[1.1.1]pentan-1-yl}-4-hydroxy-3,4-dihydro-2H-1-benzopyran-2-carboxamide] is higher in EC50: 50 to 250 nM for the first, 500 to 2000 nM for the second. The first is the more potent here.

`O=C(CO[C@H]1C[C@@H](OC(F)(F)F)C1)NC12CCC(NC(=O)[C@@H]3C[C@@H](O)c4cc(Cl)ccc4O3)(CC1)C[C@@H]2O` (single isomer, unassigned) [Compound 279] and `O=C(NC12CCC(C(=O)NCc3ccc(C(F)(F)F)cn3)(CC1)CC2)[C@H]1C[C@@H](O)c2cc(Cl)ccc2O1` [Compound 107, (2R,4R)-6-chloro-4-hydroxy-N-[4-({[5-(trifluoromethyl)pyridin-2-yl]methyl}carbamoyl)bicyclo[2.2.2]octan-1-yl]-3,4-dihydro-2H-1-benzopyran-2-carboxamide] cannot be ordered by EC50: less than 10 nM for the first, less than 10 nM for the second.

First: O=C1CC(C(=O)N[C@H]2C[C@H]3CC[C@@H](C2)N3CCCOc2ccc(Cl)cc2)Oc2ccc(Cl)cc21 (some centres unmarked) [Compound 101]
Second: CN(C(=O)COc1ccc(Cl)c(F)c1)[C@H]1CC[C@H](NC(=O)[C@H]2C[C@@H](O)c3cc(Cl)ccc3O2)CC1 [Compound 102, (2R,4R)-6-chloro-N-[(1r,4R)-4-{[(4-chloro-3-fluorophenoxy)acetyl](methyl)amino}cyclohexyl]-4-hydroxy-3,4-dihydro-2H-1-benzopyran-2-carboxamide]
The EC50 of the first is higher: greater than 2000 nM for the first, 10 to 50 nM for the second. The second is the more potent here.

First: O=C(COc1ccc(Cl)c(F)c1)NC12CC(C(=O)NCC3CC(=O)c4cc(Cl)ccc4O3)(C1)C2 (centres unmarked) [Compound 103, 3-[2-(4-chloro-3-fluorophenoxy)acetamido]-N-[(6-chloro-4-oxo-3,4-dihydro-2H-1-benzopyran-2-yl)methyl]bicyclo[1.1.1]pentane-1-carboxamide]
Second: O=C1C[C@H](C(=O)NC23CC(c4nnc(COc5ccc(Cl)c(F)c5)o4)(C2)C3)Oc2ccc(Cl)cc21 [Compound 108, (2R)-6-chloro-N-(3-{5-[(4-chloro-3-fluorophenoxy)methyl]-1,3,4-oxadiazol-2-yl}bicyclo[1.1.1]pentan-1-yl)-4-oxo-3,4-dihydro-2H-1-benzopyran-2-carboxamide]
The EC50 of the first is higher: 50 to 250 nM for the first, less than 10 nM for the second. The second is the more potent here.

Compared with `O=C(N[C@H]1CC[C@H](C(=O)NCc2ccc(C(F)(F)F)cn2)CC1)[C@H]1C[C@@H](O)c2cc(Cl)ccc2O1` [Compound 105], `O=C1C[C@H](C(=O)NC23CCC(C(=O)NCc4ccc(C(F)(F)F)cn4)(CC2)CC3)Oc2ccc(Cl)cc21` [Compound 106, (2R)-6-chloro-4-oxo-N-[4-({[5-(trifluoromethyl)pyridin-2-yl]methyl}carbamoyl)bicyclo[2.2.2]octan-1-yl]-3,4-dihydro-2H-1-benzopyran-2-carboxamide] is higher in EC50: less than 10 nM for the first, 10 to 50 nM for the second. The first is the more potent here.

First: O=C1C[C@@H](C(=O)NC23CC(c4nnc(COc5ccc(Cl)c(F)c5)o4)(C2)C3)Oc2ccc(Cl)cc21 [Compound 109, (2S)-6-chloro-N-(3-{5-[(4-chloro-3-fluorophenoxy)methyl]-1,3,4-oxadiazol-2-yl}bicyclo[1.1.1]pentan-1-yl)-4-oxo-3,4-dihydro-2H-1-benzopyran-2-carboxamide]
Second: O=C(NC12CC(c3nnc(COc4ccc(Cl)c(F)c4)o3)(C1)C2)[C@H]1C[C@@H](O)c2cc(Cl)ccc2O1 [Compound 110, (2R,4R)-6-chloro-N-(3-{5-[(4-chloro-3-fluorophenoxy)methyl]-1,3,4-oxadiazol-2-yl}bicyclo[1.1.1]pentan-1-yl)-4-hydroxy-3,4-dihydro-2H-1-benzopyran-2-carboxamide]
The EC50 of the first is higher: 10 to 50 nM for the first, less than 10 nM for the second.

With `O=C(NC12CC(c3nnc(COc4ccc(Cl)c(F)c4)o3)(C1)C2)[C@@H]1C[C@H](O)c2cc(Cl)ccc2O1` [Compound 111, (2S,4S)-6-chloro-N-(3-{5-[(4-chloro-3-fluorophenoxy)methyl]-1,3,4-oxadiazol-2-yl}bicyclo[1.1.1]pentan-1-yl)-4-hydroxy-3,4-dihydro-2H-1-benzopyran-2-carboxamide] the EC50 was 10 to 50 nM.
